# Results as given in patent US8334260B2, “sFRP and peptide motifs that interact with sFRP and methods of their use” (The United States of America as represented by the …, priority 2001, dated 2012).
# Entries after “also recorded” stand apart in the source; their conditions may differ. Where no end group is shown, it is not given here.
# B1: OPG: osteoprotegerin, soluble TNF receptor family factor that binds RANKL (protein, UniProt O00300 22-401, looked up)
# Tumor necrosis factor …: ETFPPKYLHYDEETSHQLLCDKCPPGTYLKQHCTAKWKTVCAPCPDHYYTDSWHTSDECLYCSPVCKELQYVKQECNRTHNRVCECKEGRYLEIEFCLKHRSCPPGFGVVQAGTPERNTVCKRCPDGFFSNETSSKAPCRKHTNCSVFGLLLTQKGNATHDNICSGNSESTQKCGIDVTLCEEAFFRFAVPTKFTPNWLSVLVDNLPGTKVNAESVERIKRQHSSQEQTFQLLKLWKHQNKDQDIVKKIIQDIDLCENSVQRHIGHANLTFEQLRSLMESLPGKKVGAEDIEKTIKACKPSDQILKLLSLWRIKNGDQDTLKGLMHALKHSKTYHFPKTVTQSLKKTIRFLHSFTMYKLYQKLFLEMIGNQVQSVKISCL
# B2: Al derivative: sFRP-1 deletion mutant that consists essentially of the Fz CRD (protein)
# chain: MGIGRTEGGRRGAALGVLLALGGASGRGLGSEYDYVSFQSDIGPYQSGRFYTKPPQCVDIPADLRLCHNVGYKKMVLPNLLEHETMAEVKQQASSWVPLLNKNCHAGTQVFLCSLFAPVCLDRPIYPCRWLCEAVRDSCEPVMQFFGFYWPEMLKCDKFPEGDVCIAMTPQAYVEQKLISEEDLNSAVDHHHHHH
# modifications: Fusion protein
# notes: sFRP-1 deletion mutant that consists essentially of the Fz CRD
# B3: Δ3 derivative: sFRP-1 deletion mutant containing all of the Fz CRD and a portion of the C-terminal region (protein)
# chain: MGIGRTEGGRRGAALGVLLALGGASGRGLGSEYDYVSFQSDIGPYQSGRFYTKPPQCVDIPADLRLCHNVGYKKMVLPNLLEHETMAEVKQQASSWVPLLNKNCHAGTQVFLCSLFAPVCLDRPIYPCRWLCEAVRDSCEPVMQFFGFYWPEMLKCDKFPEGDVCIAMTPPNATEASKPQGTTVCPPCDNELKSEAIIEHLCASEFALRMKIKEVKKENGDKKIVPKKKKPLKLGPIKKKDLQAYVEQKLISEEDLNSAVDHHHHHH
# modifications: Fusion protein
# notes: sFRP-1 deletion mutant containing all of the Fz CRD and a portion of the C-terminal region
# B4: NHD: netrin homology domain of sFRP-1 (protein, listed as Homo sapiens)
# chain: CIAMTPPNATEASKPQGTTVCPPCDNELKSEAIIEHLCASEFALRMKIKEVKKENGDKKIVPKKKKPLKLGPIKKKDLKKLVLYLKNGADCPCHQLDNLSHHFLIMGRKVKSQYLLTAIHKWDKKNKEFKNFMKKMKNHEC
# Assays:
# [1] = test system: sFRP-1; experiment: ELISA of peptide/alkaline phosphatase fusion proteins binding to sFRP-1; design: species or system human; details: bacterial broths, sFRP-1-coated versus BSA-coated wells, pNPP at 405 nm
# Experimental: Synthetic oligonucleotides encoding peptides of interest were ligated into the bacterial alkaline phosphatase fusion vector, pMY101, which had been digested with Sal I and Xho I (Yamabhai and Kay, Anal Biochem. 247:143-151, 1997). All recombinants were confirmed by DNA sequence analysis. Bacteria (E. coli, strain DH5αF′) transformed with the peptide/AP constructs were grown in Luria broth containing ampicillin (50 μg/mL) to an optical density of 0.5 (at 600 nm), treated with 1 mM isopropyl-β-D-thiogalactopyranoside and then incubated overnight at 37° C. Conditioned medium containing peptide/AP chimera was recovered by centrifugation at 7000 g for 15 minutes. Chimeric proteins in conditioned medium were stable when stored for a few weeks at 4° C. or for several months when stored at −80° C.
# ELISA experiments were generally performed as previously described (Uren et al., J. Biol. Chem. 275:4374-4382, 2000), with modifications depending on the sFRP binding partner to be tested. Typically, wells were coated with 0.5 or 1 μg of sFRP-1, blocked with BSA (0.2%, 1%, or 4%) and then incubated with putative binding partner overnight at room temperature. When investigating the binding of peptide/AP chimeras, after aspiration of bacterial broths, wells were washed and incubated with p-nitrophenolphosphate (pNPP). Color development was determined at 405 nm with an ELISA reader. […] Following overnight incubation at room temperature, RANKL solutions were aspirated and bound RANKL was detected by sequential incubations with primary antibody to RANKL, secondary antibody coupled with AP and pNPP. […]
# A set of peptide-alkaline phosphatase fusion proteins containing the peptide motifs (SEQ ID NOS: 14, 11, and 27) were generated. […] This qualitative difference between A-C2 (SEQ ID NO: 14), A-E4 (SEQ ID NO: 1), and B-B9 (SEQ ID NO: 27) derivatives was consistent with a quantitative difference noted during the ELISA screening of the respective phage. […]
# [2] = test system: adult mouse spleen cells; experiment: RANKL and M-CSF induced osteoclast formation from adult mouse spleen cells; format: cell-based
# Experimental: (§1) In some instances, experiments were performed either with adult mouse spleen cells or with RAW264.7 cells treated with M-CSF and RANKL as described in Quinn et al., Endocrinology 139:4424-4427, 1998. Where indicated, these assays were conducted in the presence or absence of splenic T cells. T cell fractions were prepared as described in Horwood et al., Journal of Clinical Investigation 101:595-603, 1998.
# [3] = test system: RAW264.7 cells; experiment: RANKL-induced osteoclast formation in RAW264.7 cells; format: cell-based; details: RANKL 50 ng/mL, T cells added; 5, 1 and 0.5 μg/mL
# Experimental: as §1
# (§2) The effect of bacterially expressed CRD was assessed in three different cell culture models of osteoclast formation. These were: (1) bone marrow cells+RANKL+M-CSF, (2) the macrophage/monocyte cell line RAW264.7+RANKL, and (3) RAW264.7+TNFα+TGFβ (Horwood et al., Journal of Immunology 166:4915-4921, 2001; Quinn et al., Journal of Bone and Mineral Research. 16, 1787-1794, 2001).
# [4] = test system: co-cultures of primary osteoblasts and adult spleen cells; experiment: Osteoclastogenesis co-culture of primary osteoblasts and adult spleen cells (TRAP+ cells); format: cell-based, mouse; details: for effect on TRAP+ multinucleated cells (osteoclast formation): 5 μg/mL with optimal doses of vitamin D3 (10^-8 M) and PGE2 (10^-7 M)
# Experimental: Osteoblastic cells were prepared from the calvaria of newborn mice by digestion with 0.1% collagenase (Worthington Biochemical Co., Freefold, […]) and 0.2% dispase (Godo Shusei, Tokyo, Japan). […] Exp. Med. 182: 1461-1468, 1995). Osteoblastic cells were co-cultured with bone marrow or spleen cells as described previously (Udagawa et al., J. Exp. Med. 182: 1461-1468, 1995). In short, primary osteoblastic cells (2×10^4/well) and nucleated spleen cells (1×10^6/well) or marrow cells (5×10^5/well) were co-cultured in 48-well plates (Corning Glass Inc., Corning, N.Y.) with 0.4 mL of α-MEM (GIBCO/BRL, Grand Island, N.Y.) containing 10% fetal bovine serum (Cytosystems, Castle Hill, NSW, Australia) in the presence of test chemicals. Cultures were incubated in quadruplicate and cells were replenished on day 3 with fresh medium. Osteoclast formation was evaluated after culturing for 6-7 days. Adherent cells were fixed and stained for tartrate-resistant acid phosphatase (TRAP), and the number of TRAP-positive osteoclasts was scored as described (Udagawa et al., J. Exp. Med. 182: 1461-1468, 1995). For TRAP staining, adherent cells were fixed with 4% formaldehyde in PBS for 3 minutes. After treatment with ethanol-acetone (50/50, vol/vol) for 1 minute, the well surface was air dried and incubated for 10 minutes at room temperature in an acetate buffer (0.1 M sodium acetate, pH 5.0) containing 0.01% naphthol AS-MX phosphate (Sigma) as a substrate and 0.03% red violet LB salt (Sigma) as a stain for the reaction product in the presence of 50 mM sodium tartrate. TRAP-positive cells appeared dark red, and those with three or more nuclei were scored as multinucleated and considered as osteoclasts. Validation of osteoclast formation was achieved using the specific marker of calcitonin receptor (CTR) expression and bone resorption. CTR expression was determined either by autoradiography with ^125I-salmon calcitonin or by immunohistochemical localization using an array of antibodies we have developed as described by Quinn et al., Bone 25:1-8, 1999.
# [5] = test system: sFRP-1; experiment: Competition ELISA: soluble peptides against peptide/AP chimera binding to sFRP-1; design: species or system human; details: for inhibition of A-D9/AP chimera binding to sFRP-1: soluble peptide; for inhibition of A-C2/alkaline phosphatase fusion protein binding to sFRP-1: soluble peptide preincubated 30 min with chimera
# Experimental: (§3) ELISA experiments were generally performed as previously described (Uren et al., J. Biol. Chem. 275:4374-4382, 2000), with modifications depending on the sFRP binding partner to be tested. Typically, wells were coated with 0.5 or 1 μg of sFRP-1, blocked with BSA (0.2%, 1%, or 4%) and then incubated with putative binding partner overnight at room temperature. When investigating the binding of peptide/AP chimeras, after aspiration of bacterial broths, wells were washed and incubated with p-nitrophenolphosphate (pNPP). Color development was determined at 405 nm with an ELISA reader. For competition experiments, soluble peptides were preincubated with peptide/AP chimeras in bacterial broth for 30 min at room temperature prior to transfer into ELISA wells coated with sFRP-1 or BSA. When testing RANKL binding to sFRP-1, serial dilutions of soluble RANKL were assayed in replicate. Following overnight incubation at room temperature, RANKL solutions were aspirated and bound RANKL was detected by sequential incubations with primary antibody to RANKL, secondary antibody coupled with AP and pNPP. Similar experimental designs were employed when other TNFα family members were examined for binding to sFRPs, and when sFRP-1 derivatives or sFRP-2 were the binding targets for RANKL.
# [6] = test system: RAW264.7 cells; experiment: RANKL-independent (TNFα-dependent) osteoclast formation in RAW264.7+TNFα+TGFβ; format: cell-based; details: present during the first three days of culture
# Experimental: The effect of sFRP-1 was assessed upon a RANKL-independent method of osteoclast formation using the monocyte/macrophage cell line RAW264.7 (Quinn et al., Journal of Bone and Mineral Research. 16, 1787-1794, 2001) and was compared with that of osteoprotegerin (FIG. 14).
# as §2
# [7] = target: T1, RANKL (Homo sapiens, UniProt O14788); experiment: ELISA of soluble RANKL binding to wells coated with sFRP-1, sFRP-1 derivatives or sFRP-2; details: ELISA, coated wells versus BSA
# T1 construct: For ELISA assays, recombinant soluble RANKL and TRAIL, and antibodies directed against these proteins were obtained from PeproTech; purchased PeproTech (Rocky Hill, N.J.)
# T1 sequence (O14788 140-317): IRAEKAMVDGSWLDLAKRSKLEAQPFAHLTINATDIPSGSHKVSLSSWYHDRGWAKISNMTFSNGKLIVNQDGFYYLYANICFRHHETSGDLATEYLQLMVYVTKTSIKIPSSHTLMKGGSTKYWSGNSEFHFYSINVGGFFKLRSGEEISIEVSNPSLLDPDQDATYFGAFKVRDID
# Experimental: as §3
# The possibility that sFRP-1 (SEQ ID NO: 3) and RANKL interact directly with each other was tested using an ELISA assay. […] RANKL was then incubated in these wells and in adjacent wells that had only been treated with BSA.
# [8] = test system: AC2/alkaline phosphatase chimera; experiment: ELISA of sFRP-1 deletion mutants binding to AC2/alkaline phosphatase chimera; details: sFRP-1 deletion mutants coated on ELISA wells
# Experimental: as §3, with “When testing RANKL binding to sFRP-1, serial dilutions of soluble RANKL were assayed in replicate.” left out, “Similar experimental designs were employed when other TNFα family members were examined for binding to sFRPs, and when sFRP-1 derivatives or sFRP-2 were the binding targets for RANKL.” left out
# ELISA experiments were performed essentially as described above with a series of sFRP-1 deletion mutants (in Uren et al., J. Biol. Chem., 275: 4374-4382, 2000) to determine what region(s) of the protein were required for binding to the AC2/alkaline phosphatase chimera. […] Little binding was detected with derivatives that contained the CRD alone or the C-terminal region alone.
molecule,measurement,setting,value
A-C2 (SEQ ID NO: 14)/alkaline phosphatase fusion protein: A-C2 peptide fused to bacterial alkaline phosphatase (QGTLVDGRWLQL; also: fused to bacterial alkaline phosphatase),specific binding of peptide/alkaline phosphatase fusion protein to sFRP-1,[1],"strong, highly specific binding"
A-D9/AP chimera: A-D9 peptide fused to alkaline phosphatase (WECAMYDGRCLT; cysteine pairing not given here; also: fused to alkaline phosphatase),specific binding of peptide/alkaline phosphatase fusion protein to sFRP-1,[1],bound specifically
"Alkaline phosphatase: alkaline phosphatase itself, control for the fusion proteins [reference compound]",specific binding of peptide/alkaline phosphatase fusion protein to sFRP-1,[1],no preferential binding
QGTLVDGRWLQL [A-C2],"effect on osteoclast formation, T cells removed",[2]; T cells removed from adult spleen cells with antibody-coupled magnetic beads,no additional response
same,effect on osteoclast production,"[2]; peptide present during days 0-3, RANKL 50 ng/mL and M-CSF 25 ng/mL",caused an increase in osteoclast production
same,stimulation of TRAP+ multinucleated cell differentiation,[3],dose-dependent stimulation
same,effect on TRAP+ multinucleated cells (osteoclast formation),[4],ten-fold increase; also recorded: markedly stimulated
same,time window of the effect on osteoclast formation,[4]; peptide present for different periods of the culture,only had an effect on osteoclast formation when it was present during day 0 to day 3
same,inhibition of A-D9/AP chimera binding to sFRP-1,[5],could inhibit binding
same,inhibition of A-C2/alkaline phosphatase fusion protein binding to sFRP-1,[5],dose-dependent inhibition
WECAMYDGRCLT (Peptide that binds sFRP) [A-D9],inhibition of A-D9/AP chimera binding to sFRP-1,[5],blocked in a dose-dependent manner
same,inhibition of A-C2/alkaline phosphatase fusion protein binding to sFRP-1,[5],inhibited binding
B1,effect on TNFα-dependent osteoclast formation,[6],no effect
B2,binding to RANKL,[7],retained good binding
B3,binding to the AC2/alkaline phosphatase chimera,[8],Optimal binding
B4,effect on TRAP+ multinucleated cells (osteoclast formation),[4],not further enhanced
